Experimental data as given in US20250340561A1, “QUINAZOLINE COMPOUND FOR INDUCING DEGRADATION OF G12D MUTANT KRAS PROTEIN” (Astellas Pharma Inc., priority 2021, published 2025).
Where a name gives a salt, the structure may show the parent alone. Read-outs that look alike come from different tables or passages of the source.

Legend:
[1] = system: phosphorylation of ERK (Thr202/Tyr204); assay: Test Example 2: ERK phosphorylation inhibition action in AsPC-1, Cell ELISA; format: cell-based, human; settings: Homo sapiens, ASPC1, 24 h, AsPC-1 cells, 0% = 1 μM trametinib
Method in brief: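 AsPC-1 cells (KRAS G12D) treated 24 h with compound (6 points, 10 μM to 3.0 nM final) in RPMI 1640/10% FBS. Fixed with glyoxal; pERK Thr202/Tyr204 detected by In-Cell ELISA with 800 nm fluorescence. IC50 by Sigmoid-Emax regression, with DMSO set to 100% and 1 μM trametinib to 0%.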

[2] = system: human G12D mutant KRAS-positive pancreatic cancer line AsPC-1; assay: Test Example 3: non-anchorage-dependent cell growth inhibition, spheroid 3D cell culture; format: cell-based; settings: Homo sapiens, ASPC1, 144 h, AsPC-1 spheroid 3D culture, 6 days, CellTiter Glo 2.0
Method in brief: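 AsPC-1 cells were grown as spheroids (5×10^2 cells/well, low-adhesion round-bottom plates). Next day they were treated with compound at 6 final concentrations from 10 μM to 3.0 nM for 6 days at 37 °C, and viability was read by CellTiter Glo luminescence. IC50 came from Sigmoid-Emax nonlinear regression, normalized between DMSO-treated and cell-free wells.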

| IC50 ([1]; read-out: IC50) [nM] | IC50 ([2]; read-out: IC50) [nM] | SMILES | IC50 [1] [nM] | IC50 [2] [nM] |
| --- | --- | --- | --- | --- |
|  |  | Cc1ncsc1-c1ccc(CNC(=O)[C@@H]2C[C@@H](O)CN2C(=O)[C@H](C(C)C)n2cc(-c3ccc(COc4c(-c5c(C)c(F)cc6[nH]ncc56)c(C5CC5)cc5c(N6C[C@@H]7C[C@H]6CN7)nc(OC6CCOCC6)nc45)cc3)nn2)cc1 [Example 10] | 26 | 114 |
|  |  | CCc1ccncc1Oc1nc(N2C[C@@H]3C[C@H]2CN3)c2cc(C3CC3)c(-c3c(C)c(F)cc4[nH]ncc34)c(OCc3ccc(-c4cn([C@H](C(=O)N5C[C@H](O)C[C@H]5C(=O)N[C@@H](CO)c5ccc(-c6scnc6C)cc5)C(C)C)nn4)cc3)c2n1 [Example 25] | 15 | 66 |
| 28 | 70 | Cc1c(F)cc2[nH]ncc2c1-c1c(C2CC2)cc2c(N3C[C@@H]4C[C@H]3CN4)nc(OC3CCOCC3)nc2c1OCc1ccc(-c2cn([C@H](C(=O)N3C[C@H](O)C[C@H]3C(=O)N[C@@H](CO)c3ccc(-c4scnc4CO)cc3)C(C)C)nn2)cc1 [Example 18, (4R)-1-[(2S)-2-(4-{4-[({6-cyclopropyl-4-[(1S,4S)-2,5-diazabicyclo[2.2.1]heptan-2-yl]-7-(6-fluoro-5-methyl-1H-indazol-4-yl)-2-[(oxan-4-yl)oxy]quinazolin-8-yl}oxy)methyl]phenyl}-1H-1,2,3-triazol-1-yl)-3-methylbutanoyl]-4-hydroxy-N-[(1R)-2-hydroxy-1-{4-[4-(hydroxymethyl)-1,3-thiazol-5-yl]phenyl}ethyl]-L-prolinamide n hydrochloride] |  |  |
|  |  | CCOc1nc(N2C[C@@H]3C[C@H]2CN3)c2cc(C3CC3)c(-c3c(C)c(F)cc4[nH]ncc34)c(OCc3ccc(C(=O)N[C@H](C(=O)N4C[C@H](O)C[C@H]4C(=O)N[C@@H](CO)c4ccc(-c5scnc5C)cc4)C(C)C)cc3)c2n1 [Example 5] | 97 | 169 |
|  |  | Cc1c(F)cc2[nH]ncc2c1-c1c(C2CC2)cc2c(N3C[C@@H]4C[C@H]3CN4)nc(OC3CCOCC3)nc2c1OCc1ccc(-c2cn([C@H](C(=O)N3C[C@H](O)C[C@H]3C(=O)N[C@@H](CO)c3ccc(Br)cc3)C(C)C)nn2)cc1 [Example 12] | 37 | 112 |
|  |  | Cc1ncsc1-c1ccc([C@H](CO)NC(=O)[C@@H]2C[C@@H](O)CN2C(=O)[C@H](C(C)C)n2cc(-c3ccc(COc4c(-c5c(C)c(F)cc6[nH]ncc56)c(C5CC5)cc5c(N6C[C@@H]7C[C@H]6CN7)nc(OC[C@@H]6CCOC6)nc45)cc3)nn2)cc1 [Example 50] | 10 | 21 |
|  |  | Cc1ncsc1-c1ccc([C@H](CO)NC(=O)[C@@H]2C[C@@H](O)CN2C(=O)[C@H](C(C)C)n2cc(-c3ccc(COc4c(-c5c(C)c(F)cc6[nH]ncc56)c(C5CC5)cc5c(N6C[C@@H]7C[C@H]6CN7)nc(OC[C@H](C)N6CCOCC6)nc45)cc3)nn2)cc1 [Example 65] | 11 | 45 |
|  |  | CO[C@H](C)[C@@H](C)Oc1nc(N2C[C@@H]3C[C@H]2CN3)c2cc(C3CC3)c(-c3c(C)c(F)cc4[nH]ncc34)c(OCc3ccc(-c4cn([C@H](C(=O)N5C[C@H](O)C[C@H]5C(=O)N[C@@H](CO)c5ccc(-c6scnc6C)cc5)C(C)C)nn4)cc3)c2n1 [Example 39] | 6 | 18 |
|  |  | Cc1ncsc1-c1ccc(C2(NC(=O)[C@@H]3C[C@@H](O)CN3C(=O)[C@H](C(C)C)n3cc(-c4ccc(COc5c(-c6c(C)c(F)cc7[nH]ncc67)c(C6CC6)cc6c(N7C[C@@H]8C[C@H]7CN8)nc(OC7CCOCC7)nc56)cc4)nn3)CC2)cc1 [Example 6] | 58 | 100 |
| 36 | 104 | Cc1ncsc1-c1ccc([C@H](CF)NC(=O)[C@@H]2C[C@@H](O)CN2C(=O)[C@H](C(C)C)n2cc(-c3ccc(COc4c(-c5c(C)c(F)cc6[nH]ncc56)c(C5CC5)cc5c(N6C[C@@H]7C[C@H]6CN7)nc(OC6CCOCC6)nc45)cc3)nn2)cc1 [Example 17] |  |  |
|  |  | Cc1ncsc1-c1ccc([C@H](CO)NC(=O)[C@@H]2C[C@@H](O)CN2C(=O)[C@H](C(C)C)n2cc(-c3ccc(COc4c(-c5c(C)c(F)cc6[nH]ncc56)c(C5CC5)cc5c(N6C[C@@H]7C[C@H]6CN7)nc(O[C@H](C)CN6CCOCC6)nc45)cc3)nn2)cc1 [Example 45] | 11 | 20 |
| 16 | 26 | CO[C@@H](C)COc1nc(N2C[C@@H]3C[C@H]2CN3)c2cc(C3CC3)c(-c3c(C)c(F)cc4[nH]ncc34)c(OCc3ccc(-c4cn([C@H](C(=O)N5C[C@H](O)C[C@H]5C(=O)N[C@@H](CO)c5ccc(-c6ocnc6C)cc5)C(C)C)nn4)cc3)c2n1 [Example 72] |  |  |
|  |  | Cc1ncsc1-c1ccc([C@H](CO)NC(=O)[C@@H]2C[C@@H](O)CN2C(=O)[C@H](C(C)C)n2cc(-c3ccc(COc4c(-c5c(C)c(F)cc6[nH]ncc56)c(C5CC5)cc5c(N6C[C@@H]7C[C@H]6CN7)nc(O[C@H](C)[C@@H](C)O)nc45)cc3)nn2)cc1 (atropisomer, axis not shown) [Example 37] | 18 | 19 |
| 133 | 112 | Cc1ncsc1-c1ccc([C@H](CO)NC(=O)[C@@H]2C[C@@H](O)CN2C(=O)[C@H](C2CC2)n2cc(-c3ccc(COc4c(-c5c(C)c(F)cc6[nH]ncc56)c(C5CC5)cc5c(N6C[C@@H]7C[C@H]6CN7)nc(OC6CCOCC6)nc45)cc3)nn2)cc1 [Example 73] |  |  |
|  |  | Cc1ncsc1-c1ccc([C@H](CO)NC(=O)[C@@H]2C[C@@H](O)CN2C(=O)[C@H](C(C)C)n2cc(-c3ccc(COc4c(-c5c(C)c(F)cc6[nH]ncc56)c(C5CC5)cc5c(N6C[C@@H]7C[C@H]6CN7)nc(O[C@H]6CCN(CC(F)F)C6)nc45)cc3)nn2)cc1 [Example 33] | 32 | 42 |
|  |  | Cc1c(F)cc2[nH]ncc2c1-c1c(C2CC2)cc2c(N3C[C@@H]4C[C@H]3CN4)nc(OC3CCOCC3)nc2c1OCc1ccc(-c2cn([C@H](C(=O)N3C[C@H](O)C[C@H]3C(=O)N[C@@H](CO)c3ccc(-c4ccnn4C)cc3)C(C)C)nn2)cc1 [Example 22] | 12 | 27 |
|  |  | Cc1ncsc1-c1ccc([C@H](CO)NC(=O)[C@@H]2C[C@@H](O)CN2C(=O)C(C(C)C)n2cc(-c3ccc(COc4c(-c5c(C)c(F)cc6[nH]ncc56)c(C5CC5)cc5c(N6C[C@@H]7C[C@H]6CN7)nc(OC6CCOCC6)nc45)cc3)cn2)cc1 (single isomer, unassigned) [Example 11] | 39 | 128 |
| 758 | 975 | Cc1c(F)cc2[nH]ncc2c1-c1c(C2CC2)cc2c(N3C[C@@H]4C[C@H]3CN4)nc(OC3CCOCC3)nc2c1OCc1ccc(-c2cn([C@H](C(=O)N3C[C@H](O)C[C@H]3C(=O)N[C@@H](CO)c3cccc(S(C)(=O)=O)c3)C(C)C)nn2)cc1 [Example 67] |  |  |
|  |  | Cc1ncsc1-c1ccc([C@H](CO)NC(=O)[C@@H]2C[C@@H](O)CN2C(=O)[C@H](C(C)C)n2cc(-c3ccc(COc4c(-c5c(C)c(F)cc6[nH]ncc56)c(C5CC5)cc5c(N6C[C@@H]7C[C@H]6CN7)nc(O[C@H](C)CN(C)C)nc45)cc3)nn2)cc1 [Example 46] | 22 | 56 |
|  |  | CO[C@@H](C)COc1nc(N2C[C@@H]3C[C@H]2CN3)c2cc(C3CC3)c(-c3c(C)c(F)cc4[nH]ncc34)c(OCc3ccc(-c4cn([C@H](C(=O)N5C[C@H](O)C[C@H]5C(=O)N[C@@H](CO)c5ccc(-c6scnc6C)cc5)C(C)C)nn4)cc3)c2n1 [Example 48] | 8 | 20 |
|  |  | Cc1c(F)cc2[nH]ncc2c1-c1c(C2CC2)cc2c(N3C[C@@H]4C[C@H]3CN4)nc(OC3CCOCC3)nc2c1OCc1ccc(-c2cn([C@H](C(=O)N3C[C@H](O)C[C@H]3C(=O)N[C@@H](CO)c3ccc(F)cc3)C(C)C)nn2)cc1 [Example 13] | 29 | 74 |
|  |  | Cc1ncsc1-c1ccc([C@H](CO)NC(=O)[C@@H]2C[C@@H](O)CN2C(=O)[C@H](C(C)C)n2cc(-c3ccc(COc4c(-c5c(C)c(F)cc6[nH]ncc56)c(C5CC5)cc5c(N6C[C@@H]7C[C@H]6CN7)nc(OCC67CCCN6CCC7)nc45)cc3)nn2)cc1 [Example 44] | 95 | 266 |
| 38 | 76 | COC[C@H](CN1CCOCC1)Oc1nc(N2C[C@@H]3C[C@H]2CN3)c2cc(C3CC3)c(-c3c(C)c(F)cc4[nH]ncc34)c(OCc3ccc(-c4cn([C@H](C(=O)N5C[C@H](O)C[C@H]5C(=O)N[C@@H](CO)c5ccc(-c6scnc6C)cc5)C(C)C)nn4)cc3)c2n1 [Example 55] |  |  |
